For 33 molecules, pest or weed control results are on record in patent US8895568B2, “Compositions comprising substituted pteridines as agrochemicals” (Dow AgroSciences LLC, priority 2009, dated 2014).

Read-outs that look alike come from different tables or passages of the source.

What all share (format): in vivo
The subject of one experiment is Cochliobolus sativus. Put plainly: Spot Blotch of Wheat (COCHSA), foliar spray, percent disease control. The following applies: Bipolaris sorokiniana, read-out: COCHSA percent control.
Experiment [1] deals with DROSME, AEDSAE, LAPHEG, or HELIVI. Put plainly: Insecticidal activity, active if any of DROSME, AEDSAE, LAPHEG or HELIVI was controlled at 80% or more. The following applies: read-out: >80% mortality on any insect species @ 4000 ppm.
For experiment [2], the system named is Pseudoperonospora cubensis. Put plainly: Cucumber Downy Mildew (PSPECU), foliar spray, percent disease control. To be noted: read-out: PSPECU percent control.
The next experiment relates to Colletotricum lagenarium. Put plainly: Cucumber Anthracnose (COLLLA), foliar spray, percent disease control.

Turning to `FC(F)(F)c1cc(Cl)nc(Oc2ccc(CCNc3ncnc4nccnc34)cc2)c1` [Compound 90, {2-[4-(6-chloro-4-trifluoromethylpyridin-2-yloxy)-phenyl]-ethyl}-pteridin-4-yl-amine], the figures for the pest or weed control at 200 µg/mL (in the experiment on Cochliobolus sativus (foliar); in experiment [2] (foliar); with Colletotricum lagenarium (foliar)) were 0 to 49%, 80 to 100% and 0 to 49%, respectively. Besides, in experiment [1], the pest or weed control at 4000 ppm is greater than 80%.

As to `Cc1cnc2ncnc(NCCc3ccc(Oc4cc(C(F)(F)F)ccn4)cc3)c2n1` [Compound 76], the pest or weed control at 200 µg/mL was in the range of 0 to 49% in the experiment with Cochliobolus sativus (foliar), 80 to 100% in experiment [2] (foliar) and 0 to 49% with Colletotricum lagenarium (foliar). Moreover, the pest or weed control at 4000 ppm in experiment [1] was greater than 80%.

Turning to `Brc1ccc(Oc2ccc(CCNc3ncnc4nccnc34)cc2)cn1` [Compound 110], the pest or weed control at 200 µg/mL was 0 to 49% with Cochliobolus sativus (foliar), 80 to 100% in experiment [2] (foliar) and 0 to 49% in the experiment on Colletotricum lagenarium (foliar). For the same molecule, the pest or weed control at 4000 ppm in experiment [1] is greater than 80%.

Consider `FC(F)(F)COc1ccnc(Oc2ccc(CCNc3ncnc4nccnc34)cc2)n1` [Compound 25], for which the pest or weed control at 200 µg/mL in the experiment on Cochliobolus sativus (foliar) lay within 0 to 49%; in experiment [2] (foliar), 80 to 100%; with Colletotricum lagenarium (foliar) it was 0 to 49%. Moreover, the pest or weed control at 4000 ppm in experiment [1] was greater than 80%.

For the molecule `Cc1ccc(Oc2ccc(CCNc3ncnc4nccnc34)cc2)nc1` [Compound 40], the pest or weed control at 200 µg/mL with Cochliobolus sativus (foliar) fell in the range of 0 to 49%; in experiment [2] (foliar), 80 to 100%; in the experiment on Colletotricum lagenarium (foliar), 50 to 79%. Moreover, the pest or weed control at 4000 ppm in experiment [1] was greater than 80%.

For the molecule `Cc1ccnc(Oc2ccc(CCNc3ncnc4nccnc34)cc2)c1` [Compound 42], the pest or weed control at 200 µg/mL with Cochliobolus sativus (foliar) fell in the range of 0 to 49%; in experiment [2] (foliar), 80 to 100%; in the experiment on Colletotricum lagenarium (foliar) it was 80 to 100%. Besides, the pest or weed control at 4000 ppm in experiment [1] is greater than 80%.

For `FC(F)(F)c1cccnc1Oc1ccc(CCNc2ncnc3nccnc23)cc1` [Compound 60], the pest or weed control at 200 µg/mL was 0 to 49% in the experiment on Cochliobolus sativus (foliar), 80 to 100% in experiment [2] (foliar) and 50 to 79% in the experiment on Colletotricum lagenarium (foliar). For the same molecule, the pest or weed control at 4000 ppm in experiment [1] is greater than 80%.

Consider `Cc1cccnc1Oc1ccc(CCNc2ncnc3nccnc23)cc1` [Compound 43], for which the results for the pest or weed control at 200 µg/mL (in the experiment with Cochliobolus sativus (foliar); in experiment [2] (foliar); in the experiment with Colletotricum lagenarium (foliar)) were 0 to 49%, 80 to 100% and 0 to 49%, respectively. Further, the pest or weed control at 4000 ppm in experiment [1] was greater than 80%.

As for `Fc1cc(Oc2ccc(CCNc3ncnc4nccnc34)cc2)c(F)cn1` [Compound 108], the pest or weed control at 200 µg/mL is 0 to 49% in the experiment with Cochliobolus sativus (foliar), 80 to 100% in experiment [2] (foliar) and 0 to 49% in the experiment on Colletotricum lagenarium (foliar). For the same molecule, the pest or weed control at 4000 ppm in experiment [1] is greater than 80%.

For the molecule `COc1ccnc(Oc2ccc(CCNc3ncnc4nccnc34)cc2)c1` [Compound 95], the results for the pest or weed control at 200 µg/mL (with Cochliobolus sativus (foliar); in experiment [2] (foliar); in the experiment on Colletotricum lagenarium (foliar)) were 0 to 49%, 80 to 100% and 80 to 100%, respectively. Further, the pest or weed control at 4000 ppm in experiment [1] was greater than 80%.

In the case of `Fc1nc(Oc2ccc(CCNc3ncnc4nccnc34)cc2)c(F)c(C(F)(F)F)c1F` [Compound 138, Pteridin-4-yl-{2-[4-(3,5,6-trifluoro-4-trifluoromethyl-pyridin-2-yloxy)-phenyl]-ethyl}-amine], the pest or weed control at 200 µg/mL with Cochliobolus sativus (foliar) fell in the range of 0 to 49%; in experiment [2] (foliar), 80 to 100%; in the experiment on Colletotricum lagenarium (foliar) it was 80 to 100%. Moreover, in experiment [1], the pest or weed control at 4000 ppm is greater than 80%.

As for `Cc1ccc(Oc2ccc(CCNc3ncnc4nccnc34)cc2)cc1` [Compound 136], the pest or weed control at 200 µg/mL in the experiment on Cochliobolus sativus (foliar) lay within 0 to 49%; in experiment [2] (foliar), 80 to 100%; in the experiment with Colletotricum lagenarium (foliar), 50 to 79%. Moreover, in experiment [1], the pest or weed control at 4000 ppm is greater than 80%.

In the case of `COc1cc(CCNc2ncnc3nccnc23)ccc1Oc1ncc(C(F)(F)F)cc1F` [Compound 130], the figures for the pest or weed control at 200 µg/mL (with Cochliobolus sativus (foliar); in experiment [2] (foliar); with Colletotricum lagenarium (foliar)) were 0 to 49%, 80 to 100% and 0 to 49%, respectively. For the same molecule, the pest or weed control at 4000 ppm in experiment [1] is greater than 80%.

As to `FC(F)(F)c1nc(Oc2ccc(CCNc3ncnc4nccnc34)cc2)sc1Cl` [Compound 128], the values for the pest or weed control at 200 µg/mL (with Cochliobolus sativus (foliar); in experiment [2] (foliar); in the experiment on Colletotricum lagenarium (foliar)) were 0 to 49%, 80 to 100% and 0 to 49%, respectively. In addition, the pest or weed control at 4000 ppm in experiment [1] is greater than 80%.

Regarding `FC(F)(F)c1ccnc(Oc2ccc(CCNc3ncnc4ncc(Cl)nc34)cc2)n1` [Compound 75], the pest or weed control at 200 µg/mL (with Cochliobolus sativus (foliar); in experiment [2] (foliar); with Colletotricum lagenarium (foliar)) was 0 to 49% in each case. In addition, the pest or weed control at 4000 ppm in experiment [1] is greater than 80%.

On to `Cc1cnc2ncnc(NCCc3ccc(Oc4nccc(C(F)(F)F)n4)cc3)c2n1` [Compound 55], for which the pest or weed control at 200 µg/mL with Cochliobolus sativus (foliar) is 0 to 49%; in experiment [2] (foliar), 80 to 100%; in the experiment on Colletotricum lagenarium (foliar) it was 50 to 79%. Further, the pest or weed control at 4000 ppm in experiment [1] is greater than 80%.

Regarding `Cc1nnsc1Oc1ccc(CCNc2ncnc3nccnc23)cc1` [Compound 59], the pest or weed control at 200 µg/mL (in the experiment with Cochliobolus sativus (foliar); in experiment [2] (foliar); in the experiment on Colletotricum lagenarium (foliar)) was 0 to 49% throughout. Moreover, in experiment [1], the pest or weed control at 4000 ppm was greater than 80%.

For `CCOc1cc(CCNc2ncnc3nccnc23)ccc1Oc1cc(C(F)(F)F)ccn1` [Compound 153], the pest or weed control at 200 µg/mL in the experiment on Cochliobolus sativus (foliar) lay within 0 to 49%; in experiment [2] (foliar) it was 80 to 100%; in the experiment on Colletotricum lagenarium (foliar), 0 to 49%. Also, the pest or weed control at 4000 ppm in experiment [1] was greater than 80%.

Take `FC(F)(F)COc1ccc(CCNc2ncnc3nccnc23)cn1` [Compound 232]: the pest or weed control at 200 µg/mL with Cochliobolus sativus (foliar spray) lay in the range of 0 to 49%; in experiment [2] (foliar spray), 80 to 100%; with Colletotricum lagenarium (foliar spray) it was 50 to 79%. Further, the pest or weed control at 4000 ppm in experiment [1] is greater than 80%.

For the molecule `COc1cccc(Oc2ccc(CCNc3ncnc4nccnc34)cc2)n1` [Compound 10, {2-[4-(6-Methoxypyridin-2-yloxy)-phenyl]-ethyl}-pteridin-4-yl-amine], the pest or weed control at 200 µg/mL was in the range of 0 to 49% with Cochliobolus sativus (foliar), 80 to 100% in experiment [2] (foliar) and 0 to 49% in the experiment with Colletotricum lagenarium (foliar). Moreover, the pest or weed control at 4000 ppm in experiment [1] is greater than 80%.

In the case of `FC(F)(F)c1cccc(Oc2ccc(CCNc3ncnc4nccnc34)cc2)n1` [Compound 6], the pest or weed control at 200 µg/mL fell in the range of 0 to 49% with Cochliobolus sativus (foliar), 80 to 100% in experiment [2] (foliar) and 0 to 49% in the experiment with Colletotricum lagenarium (foliar). For the same molecule, the pest or weed control at 4000 ppm in experiment [1] was greater than 80%.

As to `Cc1cc(Oc2cc(C(F)(F)F)ccn2)c(C)cc1CCNc1ncnc2nccnc12` [Compound 152], the values for the pest or weed control at 200 µg/mL (in the experiment on Cochliobolus sativus (foliar); in experiment [2] (foliar); in the experiment on Colletotricum lagenarium (foliar)) were 0 to 49%, 80 to 100% and 0 to 49%, respectively. Also, the pest or weed control at 4000 ppm in experiment [1] is greater than 80%.

`Cc1cc(CCNc2ncnc3nccnc23)ccc1Oc1cc(C#N)ccn1` [Compound 155]: the pest or weed control at 200 µg/mL with Cochliobolus sativus (foliar) lay in the range of 0 to 49%; in experiment [2] (foliar) it was 80 to 100%; with Colletotricum lagenarium (foliar), 50 to 79%. The pest or weed control at 4000 ppm in experiment [1] was greater than 80%.

For the molecule `COc1cc(CCNc2ncnc3nccnc23)ccc1Oc1ccc(C#N)cn1` [Compound 50], the pest or weed control at 200 µg/mL lay within 0 to 49% in the experiment on Cochliobolus sativus (foliar), 80 to 100% in experiment [2] (foliar) and 0 to 49% in the experiment with Colletotricum lagenarium (foliar). For the same molecule, the pest or weed control at 4000 ppm in experiment [1] was greater than 80%.

As for `N#Cc1ccc(Oc2ccc(CCNc3ncnc4nccnc34)cc2)nc1` [Compound 14], the pest or weed control at 200 µg/mL was 0 to 49% with Cochliobolus sativus (foliar), 80 to 100% in experiment [2] (foliar) and 0 to 49% in the experiment on Colletotricum lagenarium (foliar). Further, the pest or weed control at 4000 ppm in experiment [1] is greater than 80%.

As for `CCc1ncnc(Oc2ccc(CCNc3ncnc4nccnc34)cc2)c1Cl` [Compound 146], the pest or weed control at 200 µg/mL in the experiment on Cochliobolus sativus (foliar) lay in the range of 0 to 49%; in experiment [2] (foliar), 80 to 100%; in the experiment with Colletotricum lagenarium (foliar) it was 50 to 79%. Moreover, the pest or weed control at 4000 ppm in experiment [1] is greater than 80%.

For the molecule `FC(F)(F)c1ccnc(Oc2cccc(OCCNc3ncnc4nccnc34)c2)c1` [Compound 86], the pest or weed control at 200 µg/mL fell in the range of 0 to 49% with Cochliobolus sativus (foliar), 80 to 100% in experiment [2] (foliar) and 0 to 49% in the experiment on Colletotricum lagenarium (foliar).

`CC(C)(C)c1ccnc(Oc2ccc(CCNc3ncnc4nccnc34)cc2)c1` [Compound 207, {2-[4-(4-tert-Butylpyridin-2-yloxy)-phenyl]-ethyl}-pteridin-4-ylamine]: the pest or weed control at 200 µg/mL is 0 to 49% with Cochliobolus sativus (foliar spray), 80 to 100% in experiment [2] (foliar spray) and 0 to 49% with Colletotricum lagenarium (foliar spray).

For the molecule `c1cc(-c2nnc(Oc3ccc(CCNc4ncnc5nccnc45)cc3)s2)ccn1` [Compound 23], the pest or weed control at 200 µg/mL (with Cochliobolus sativus (foliar); in experiment [2] (foliar); with Colletotricum lagenarium (foliar)) was 0 to 49% throughout.

With `O=Cc1cc(C(F)(F)F)ccc1Oc1ccc(CCNc2ncnc3nccnc23)cc1` [Compound 100], the results for the pest or weed control at 200 µg/mL (in the experiment on Cochliobolus sativus (foliar); in experiment [2] (foliar); in the experiment on Colletotricum lagenarium (foliar)) were 0 to 49%, 80 to 100% and 0 to 49%, respectively.

As for `Fc1nc(F)c(F)c(Oc2ccc(CCNc3ncnc4nccnc34)cc2)c1F` [Compound 94], the pest or weed control at 200 µg/mL was 0 to 49% in the experiment with Cochliobolus sativus (foliar), 50 to 79% in experiment [2] (foliar) and 50 to 79% in the experiment on Colletotricum lagenarium (foliar).

Regarding `COc1ccc(CCNc2nc(C)nc3nc(C)c(C)nc23)cc1` [Compound 208, [2-(4-Methoxyphenyl)-ethyl]-(2,6,7-trimethylpteridin-4-yl)-amine], the pest or weed control at 200 µg/mL in the experiment on Cochliobolus sativus (foliar spray) was 0 to 49%; in experiment [2] (foliar spray) it was 50 to 79%; in the experiment with Colletotricum lagenarium (foliar spray), 0 to 49%.

Consider `COc1cc(C(F)(F)F)cc(Oc2ccc(OCCNc3ncnc4nccnc34)cc2)n1` [Compound 168], for which the pest or weed control at 200 µg/mL (in the experiment with Cochliobolus sativus (foliar); in experiment [2] (foliar); with Colletotricum lagenarium (foliar)) was 0 to 49% each time.
